Source: patent US20130302409A1, “METHODS AND COMPOSITIONS FOR CANCER IMMUNOTHERAPY” (priority 2010, published 2013)

System: 4T1 tumor (highly metastatic, syngeneic mammary cancer cell line)
Assay: Survival of tumor-bearing mice after cyclophosphamide, intratumoral nanoparticles and cryoablation or resection
Assay type: in vivo, BALB/c mice
Conditions: Cy 200 mg/kg intraperitoneally day 14 plus cryoablation day 16, compared with Cy plus surgical resection of the subcutaneous nodule; FIG. 3A
Method: The particles are suspended with a pipette for about one minute. […] The particles in PBS should not be used if kept for more than 12 hours. The particles are lightly sonicated with a bath sonicator, or vortexed to make an even suspension. The particles should not sit idly in the syringe as they will settle and then clog the syringe. Ideally, the injection should be made within 10-30 seconds after drawing the well-mixed nanoparticle suspension into the syringe. For mice with a tumor of 5-8 mm diameter, 100 mg of particles is injected directly into the tumor in a volume of 0.1 ml.
Groups of 10 BALB/c mice each received a subcutaneous inoculation of 10^4 cells of the highly metastatic, syngeneic mammary cancer cell line on the flank.

Compound: O=P1(N(CCCl)CCCl)NCCCO1 (stereo not shown) [cyclophosphamide]
- survival: did not survive significantly longer
